Assay results reported in a melting point compilation (Tetko et al.; mined from patent text by program, amines drawn as free bases though some values may be those of a salt).

Structure (SMILES)	melting point [°C]
CC(NC(=O)C1=C(C(=O)Nc2cc(OC3CCCC3)c(Cl)cc2F)CCCC1)c1ccccc1 (stereo not given)	173 to 175
C[C@@H]1OCCN(c2cc(N3CCOCC3)nc(-n3c(N)nc4ccccc43)n2)[C@@H]1C (relative stereo)	118 to 123
COc1ccc(-c2c(Cl)ncn2-c2ccc(S(C)(=O)=O)cc2)cc1F	196
CN(C)CCN1C(=O)c2ccc3[nH]c4ccc(N)cc4c3c2C1=O	217 to 218
COc1cc(OCCN2CCOCC2)c(C=CC(=O)c2ccc(S(N)(=O)=O)cc2)cc1-c1cccs1	186 to 188
NC(=O)c1c(F)ccc(OCc2nc(-c3ccc(O)cc3)no2)c1F	209 to 210
CSc1ncc2cc(Oc3ccccc3F)c(=O)n(C)c2n1	234 to 236
Cc1nc(-n2cnn(Cc3ccc(F)cc3)c2=O)sc1C(=O)NCc1ncco1	152 to 153
C=CCn1c(C)nc(N2CCc3ccccc3CC2)c(C#N)c1=O	141 to 144
O=[N+]([O-])c1ccc(Sc2cccc3cnccc23)cc1NCc1ccccc1	153 to 154
COc1ccc(-c2ccccn2)c(NC(=O)CC(C)NC(=O)OC(C)(C)C)c1 (stereo not given)	143 to 145
CCNc1nc2n(n1)Cc1ccccc1-2	150 to 152
O=C1C(CCO)Oc2ccccc2N1Cc1ccccc1 (stereo not given)	83 to 85.5
CC(Cc1ccccc1)C1CC=C2C3=C(CCC21C)C1(C)CCC(O)C(C)(C)C1CC3 (stereo not given)	179 to 186
CCNC(=O)Nc1cnc2ccc(Cl)nc2n1	240
CSC1=Nc2ccc(Cl)cc2Cn2nnnc21	131 to 133
CC(C)(C)NS(=O)(=O)Cl	28 to 30
Fc1ccc(C(Cl)=NNc2ccccc2)cc1	118 to 120
C[C@]12CCC(=O)N[C@@H]1CCc1cc(-c3nccs3)ccc12	206 to 207
Cc1c(NC(=O)c2ccc(-c3ccc(Cl)s3)cc2F)ccc2cc(CN3CCCCCC3)cnc12	166 to 167

Structure (SMILES)	melting point [°C]
COC(=O)c1ccc2c(c1)S(=O)(=O)c1ccccc1NC2	236
CCCCCCCCc1cc2c(cc1/C(C)=C/c1ccc(C(=O)O)cc1)C(C)(C)CCS2(=O)=O	176 to 178
Cc1cc(C=C2SC(=O)NC2=O)ccc1-c1cccc(CN(C)C(=O)OC(C)(C)C)c1	156
COc1cc(N2CCN([C@H]3CC[C@H](c4cn(C)c5ccc(C#N)cc54)CC3)CC2)c2ncccc2c1C	212 to 213
CC(C)(C)OC(=O)NCc1cc(C(=O)O)ccn1	207
CC1(C)CC(O)CC(C)(C)N1Cc1ccccc1	151 to 152
O=C(O)c1cc([N+](=O)[O-])cc(S(F)(F)(F)(F)F)c1	140
N#Cc1cc(NC(=O)c2csc3c2CCCC3)ccc1N1CCC(O)CC1	172 to 173
O=C1CN2CCOC2(c2ccccc2Cl)c2cc([N+](=O)[O-])ccc2N1 (stereo not given)	201 to 203
CC(C)C1CCC(C(=O)N[C@H](Cc2ccccc2)C(=O)O)CC1 (stereo not given in full)	129 to 130
CC(C)(C)NC[C@H](Cc1ccc(OCc2ccccc2)cc1)NC(=O)OC(C)(C)C	77 to 79
CC(C)CCNc1c([N+](=O)[O-])cnc2ccccc12	99 to 100
Cc1cc2c(c3ccc(=O)[nH]c13)OC(CNC(=O)C(C)(C)NC(=O)OCc1ccccc1)C2 (stereo not given)	220 to 222
O=c1[nH]ncn1N=Cc1cccnc1	264 to 265
Cc1nnc(-c2cc3cccc(OC[C@@H](O)CN4CCC(c5ccc6ccccc6c5)CC4)c3o2)o1	140 to 142
Cc1oc(-c2ccccc2)nc1COc1ccc(/C=C/CO)cc1	134 to 135
COc1cc2cc(CC(C)C)sc2c(Cl)c1Cl	40 to 41
Cc1ncccc1-c1ccc(OC2SCC(O)C(O)C2O)cn1 (stereo not given)	167 to 168
Cc1cc(CC2CCCCC2)c(NC(=O)OCc2ccccc2)c(=O)n1CC(=O)O	150
O=C(Nc1cccnc1)N1CCc2cc(I)c(Cl)cc21	> 200
